Experimental data published in patent publication US20210045385A1, “PYRIDAZINONE-SUBSTITUTED KETOXIMES AS HERBICIDES” (FMC Corporation, priority 2018, published 2021).

Experiments:
Format in all cases: in vivo
rice (Oryza sativa) = assay: Test B flooded paddy test, visual plant response rating; details: 250 g ai/ha, Flood, applied to paddy water, 2-leaf stage, evaluated after 13 to 15 days
In short: (§1)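 Greenhouse paddy conditions applied: two-leaf plants, a 3 cm flood above the soil surface maintained throughout, and compound added to the water rather than the foliage. Plants were judged visually against controls at 13 to 15 days.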

[1] = system: ducksalad (Heteranhera limosa); assay: as above; details: 250 g ai/ha, Flood, applied to paddy water, 2-leaf stage, evaluated after 13 to 15 days
In short: as §1

[2] = system: sedge, umbrella (small-flower umbrella sedge, Cyperus difformis); assay: as above; details: 250 g ai/ha, Flood, applied to paddy water, 2-leaf stage, evaluated after 13 to 15 days
In short: as §1

[3] = system: barnyardgrass (Echinochloa crus-galli); assay: as above; details: 250 g ai/ha, Flood, applied to paddy water, 2-leaf stage, evaluated after 13 to 15 days
In short: as §1

kochia (Kochia scoparia) [4] = assay: Test A postemergence, visual plant response rating; details: for Kochia plant response rating (0 to 100 scale): 500 g ai/ha, postemergence, 0 is no effect, 100 is complete control; for Kochia plant response rating: Postemergence, 125 g ai/ha, 0 to 100 scale (0 no effect, 100 complete control)
In short: (§2)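 Greenhouse pot test in loam–sand soil mix: compound in a surfactant-containing non-phytotoxic solvent applied preemergence (directed soil spray) or postemergence (one- to two-leaf plants, 2–10 cm). Injury scored visually after ~10 days, 0–100.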

[5] = system: wheat (Triticum aestivum); assay: Test A postemergence, visual plant response rating; details: for Wheat plant response rating: 0 to 100 scale (0 no effect, 100 complete control)
In short: as §2

[6] = system: pigweed (Amaranthus retroflexus); assay: Test A postemergence, visual plant response rating; details: for Pigweed plant response rating (0 to 100 scale): 500 g ai/ha, postemergence, 0 is no effect, 100 is complete control; for Pigweed plant response rating: Postemergence, 125 g ai/ha, 0 to 100 scale (0 no effect, 100 complete control)
In short: as §2

[7] = system: foxtail, giant (giant foxtail, Setaria faberii); assay: Test A postemergence, visual plant response rating; details: for Foxtail, Giant plant response rating (0 to 100 scale): 500 g ai/ha, postemergence, 0 is no effect, 100 is complete control; for Foxtail, Giant plant response rating: Postemergence, 125 g ai/ha, 0 to 100 scale (0 no effect, 100 complete control)
In short: as §2

[8] = system: ragweed (common ragweed, Ambrosia elatior); assay: Test A postemergence, visual plant response rating; details: for Ragweed plant response rating (0 to 100 scale): 500 g ai/ha, postemergence, 0 is no effect, 100 is complete control; for Ragweed plant response rating: Postemergence, 125 g ai/ha, 0 to 100 scale (0 no effect, 100 complete control)
In short: as §2

corn (Zea mays) = assay: Test A postemergence, visual plant response rating; details: for Corn plant response rating (0 to 100 scale): 500 g ai/ha, postemergence, 0 is no effect, 100 is complete control; for Corn plant response rating: Postemergence, 125 g ai/ha, 0 to 100 scale (0 no effect, 100 complete control)
In short: as §2

[9] = system: blackgrass (Alopecurus myosuroides); assay: Test A postemergence, visual plant response rating; details: for Blackgrass plant response rating (0 to 100 scale): 500 g ai/ha, postemergence, 0 is no effect, 100 is complete control; for Blackgrass plant response rating: Postemergence, 125 g ai/ha, 0 to 100 scale (0 no effect, 100 complete control)
In short: as §2

[10] = system: galium (catchweed bedstraw, Galium aparine); assay: Test A postemergence, visual plant response rating; details: for Galium plant response rating (0 to 100 scale): 500 g ai/ha, postemergence, 0 is no effect, 100 is complete control; for Galium plant response rating: Postemergence, 125 g ai/ha, 0 to 100 scale (0 no effect, 100 complete control)
In short: as §2

[11] = system: Italian ryegrass (Lolium multiflorum); assay: Test A postemergence, visual plant response rating; details: for Ryegrass, Italian plant response rating: 125 g ai/ha, 0 to 100 scale (0 no effect, 100 complete control)
In short: as §2

[12] = system: barnyardgrass (Echinochloa crus-galli); assay: Test A postemergence, visual plant response rating; details: for Barnyardgrass plant response rating (0 to 100 scale): 500 g ai/ha, postemergence, 0 is no effect, 100 is complete control; for Barnyardgrass plant response rating: Postemergence, 125 g ai/ha, 0 to 100 scale (0 no effect, 100 complete control)
In short: as §2

kochia (Kochia scoparia) [13] = assay: Test A preemergence, visual plant response rating; details: for Kochia plant response rating: 125 g ai/ha, preemergence, 0 to 100 scale, 0 no effect, 100 complete control; for Kochia plant response rating (0 to 100 scale): 500 g ai/ha Preemergence, approx. 10 days
In short: as §2

[14] = system: pigweed (Amaranthus retroflexus); assay: Test A preemergence, visual plant response rating; details: for Pigweed plant response rating: 125 g ai/ha, preemergence, 0 to 100 scale, 0 no effect, 100 complete control; for Pigweed plant response rating (0 to 100 scale): 500 g ai/ha Preemergence, approx. 10 days
In short: as §2

[15] = system: foxtail, giant (giant foxtail, Setaria faberii); assay: Test A preemergence, visual plant response rating; details: for Foxtail, Giant plant response rating: 125 g ai/ha, preemergence, 0 to 100 scale, 0 no effect, 100 complete control; for Foxtail, Giant plant response rating (0 to 100 scale): 500 g ai/ha Preemergence, approx. 10 days
In short: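 Formulated in a non-phytotoxic solvent mixture including surfactant, each test chemical was sprayed onto the soil surface after sowing, or onto seedlings 2 to 10 cm high. Roughly 10 days later, plants were compared with untreated controls and rated for injury from 0 (no effect) to 100 (complete control).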

[16] = system: ragweed (common ragweed, Ambrosia elatior); assay: Test A preemergence, visual plant response rating; details: for Ragweed plant response rating: 125 g ai/ha, preemergence, 0 to 100 scale, 0 no effect, 100 complete control; for Ragweed plant response rating (0 to 100 scale): 500 g ai/ha Preemergence, approx. 10 days
In short: as §2

[17] = system: Italian ryegrass (Lolium multiflorum); assay: Test A preemergence, visual plant response rating; details: for Ryegrass, Italian plant response rating: 125 g ai/ha, preemergence, 0 to 100 scale, 0 no effect, 100 complete control; for Ryegrass, Italian plant response rating (0 to 100 scale): 500 g ai/ha Preemergence, approx. 10 days
In short: as §2

[18] = system: barnyardgrass (Echinochloa crus-galli); assay: Test A preemergence, visual plant response rating; details: for Barnyardgrass plant response rating: 125 g ai/ha, preemergence, 0 to 100 scale, 0 no effect, 100 complete control; for Barnyardgrass plant response rating (0 to 100 scale): 500 g ai/ha Preemergence, approx. 10 days
In short: as §2

[19] = 500 g ai/ha, postemergence, 0 is no effect, 100 is complete control

CCO/N=C(/c1c(O)c(Cl)nn(C)c1=O)c1cccc2ccccc12 [Compound 147]
Plant response rating, Rice (0 to 100 scale, 0 is no effect, 100 is complete control) (rice (Oryza sativa)): 0 | Plant response rating, Ducksalad (0 to 100 scale, 0 is no effect, 100 is complete control) [1]: 0 | Plant response rating, Sedge, Umbrella (0 to 100 scale, 0 is no effect, 100 is complete control) [2]: 0 | Plant response rating, Barnyardgrass (0 to 100 scale, 0 is no effect, 100 is complete control) [3]: 0 | Kochia plant response rating (0 to 100 scale) (kochia (Kochia scoparia) [4]): 90 | Kochia plant response rating (kochia (Kochia scoparia) [4]): 40 | Wheat plant response rating ([5]; Postemergence, 500 g ai/ha): 0 | Wheat plant response rating (0 to 100 scale) ([5]; Postemergence, approx. 10 days): 0 | Pigweed plant response rating (0 to 100 scale) [6]: 90 | Pigweed plant response rating [6]: 40 | Foxtail, Giant plant response rating (0 to 100 scale) [7]: 70 | Foxtail, Giant plant response rating [7]: 30 | Ragweed plant response rating (0 to 100 scale) [8]: 90 | Ragweed plant response rating [8]: 100 | Corn plant response rating (0 to 100 scale) (corn (Zea mays)): 30 | Corn plant response rating (corn (Zea mays)): 0 | Blackgrass plant response rating (0 to 100 scale) [9]: 60 | Blackgrass plant response rating [9]: 30 | Galium plant response rating (0 to 100 scale) [10]: 90 | Galium plant response rating [10]: 90 | Ryegrass, Italian plant response rating (0 to 100 scale) [11, 19]: 0 | Ryegrass, Italian plant response rating (0 to 100 scale) ([11]; Postemergence, rate not given, approx. 10 days): 0 | Barnyardgrass plant response rating (0 to 100 scale) [12]: 60 | Barnyardgrass plant response rating [12]: 20 | Kochia plant response rating (kochia (Kochia scoparia) [13]): 100 | Kochia plant response rating (0 to 100 scale) (kochia (Kochia scoparia) [13]): 100 | Pigweed plant response rating [14]: 60 | Pigweed plant response rating (0 to 100 scale) [14]: 100 | Foxtail, Giant plant response rating [15]: 50 | Foxtail, Giant plant response rating (0 to 100 scale) [15]: 80 | Ragweed plant response rating [16]: 90 | Ragweed plant response rating (0 to 100 scale) [16]: 100 | Ryegrass, Italian plant response rating [17]: 0 | Ryegrass, Italian plant response rating (0 to 100 scale) [17]: 0 | Barnyardgrass plant response rating [18]: 50 | Barnyardgrass plant response rating (0 to 100 scale) [18]: 60

CO/N=C(\c1ccc(F)cc1C)c1c(O)c(C)nn(C)c1=O [Compound 72]
Plant response rating, Rice (0 to 100 scale, 0 is no effect, 100 is complete control) (rice (Oryza sativa)): 0 | Plant response rating, Ducksalad (0 to 100 scale, 0 is no effect, 100 is complete control) [1]: 0 | Plant response rating, Sedge, Umbrella (0 to 100 scale, 0 is no effect, 100 is complete control) [2]: 0 | Plant response rating, Barnyardgrass (0 to 100 scale, 0 is no effect, 100 is complete control) [3]: 0 | Kochia plant response rating (0 to 100 scale) (kochia (Kochia scoparia) [4]): 60 | Kochia plant response rating (kochia (Kochia scoparia) [4]): 20 | Wheat plant response rating (0 to 100 scale) [5, 19]: 20 | Wheat plant response rating ([5]; Postemergence, 125 g ai/ha): 0 | Pigweed plant response rating (0 to 100 scale) [6]: 80 | Pigweed plant response rating [6]: 30 | Foxtail, Giant plant response rating (0 to 100 scale) [7]: 10 | Foxtail, Giant plant response rating [7]: 0 | Ragweed plant response rating (0 to 100 scale) [8]: 70 | Ragweed plant response rating [8]: 40 | Corn plant response rating (0 to 100 scale) (corn (Zea mays)): 20 | Corn plant response rating (corn (Zea mays)): 0 | Blackgrass plant response rating (0 to 100 scale) [9]: 0 | Blackgrass plant response rating [9]: 20 | Galium plant response rating (0 to 100 scale) [10]: 70 | Galium plant response rating [10]: 70 | Ryegrass, Italian plant response rating (0 to 100 scale) [11, 19]: 40 | Ryegrass, Italian plant response rating ([11]; Postemergence): 0 | Barnyardgrass plant response rating (0 to 100 scale) [12]: 0 | Barnyardgrass plant response rating [12]: 0 | Kochia plant response rating (kochia (Kochia scoparia) [13]): 0 | Kochia plant response rating (0 to 100 scale) (kochia (Kochia scoparia) [13]): 0 | Pigweed plant response rating [14]: 0 | Pigweed plant response rating (0 to 100 scale) [14]: 20 | Foxtail, Giant plant response rating [15]: 0 | Foxtail, Giant plant response rating (0 to 100 scale) [15]: 10 | Ragweed plant response rating [16]: 0 | Ragweed plant response rating (0 to 100 scale) [16]: 20 | Ryegrass, Italian plant response rating [17]: 0 | Ryegrass, Italian plant response rating (0 to 100 scale) [17]: 40 | Barnyardgrass plant response rating [18]: 0 | Barnyardgrass plant response rating (0 to 100 scale) [18]: 0

C#CCO/N=C(/c1c(O)c(C)nn(C)c1=O)c1cccc2ccccc12 [Compound 82, 5-hydroxy-2,6-dimethyl-4-[(E)-[(2-propyn-1-yloxy)imino]-1-naphthalenylmethyl]-3(2H)-pyridazinone]
Plant response rating, Rice (0 to 100 scale, 0 is no effect, 100 is complete control) (rice (Oryza sativa)): 0 | Plant response rating, Ducksalad (0 to 100 scale, 0 is no effect, 100 is complete control) [1]: 0 | Plant response rating, Sedge, Umbrella (0 to 100 scale, 0 is no effect, 100 is complete control) [2]: 0 | Plant response rating, Barnyardgrass (0 to 100 scale, 0 is no effect, 100 is complete control) [3]: 0 | Kochia plant response rating (0 to 100 scale) (kochia (Kochia scoparia) [4]): 90 | Kochia plant response rating (kochia (Kochia scoparia) [4]): 80 | Wheat plant response rating (0 to 100 scale) [5, 19]: 80 | Wheat plant response rating ([5]; Postemergence, 125 g ai/ha): 50 | Pigweed plant response rating (0 to 100 scale) [6]: 90 | Pigweed plant response rating [6]: 70 | Foxtail, Giant plant response rating (0 to 100 scale) [7]: 80 | Foxtail, Giant plant response rating [7]: 70 | Ragweed plant response rating (0 to 100 scale) [8]: 100 | Ragweed plant response rating [8]: 90 | Corn plant response rating (0 to 100 scale) (corn (Zea mays)): 30 | Corn plant response rating (corn (Zea mays)): 0 | Blackgrass plant response rating (0 to 100 scale) [9]: 100 | Blackgrass plant response rating [9]: 90 | Galium plant response rating (0 to 100 scale) [10]: 100 | Galium plant response rating [10]: 90 | Ryegrass, Italian plant response rating (0 to 100 scale) [11, 19]: 80 | Ryegrass, Italian plant response rating ([11]; Postemergence): 80 | Barnyardgrass plant response rating (0 to 100 scale) [12]: 80 | Barnyardgrass plant response rating [12]: 50 | Kochia plant response rating (kochia (Kochia scoparia) [13]): 10 | Kochia plant response rating (0 to 100 scale) (kochia (Kochia scoparia) [13]): 80 | Pigweed plant response rating [14]: 100 | Pigweed plant response rating (0 to 100 scale) [14]: 100 | Foxtail, Giant plant response rating [15]: 100 | Foxtail, Giant plant response rating (0 to 100 scale) [15]: 100 | Ragweed plant response rating [16]: 90 | Ragweed plant response rating (0 to 100 scale) [16]: 100 | Ryegrass, Italian plant response rating [17]: 90 | Ryegrass, Italian plant response rating (0 to 100 scale) [17]: 100 | Barnyardgrass plant response rating [18]: 60 | Barnyardgrass plant response rating (0 to 100 scale) [18]: 100
